Marks after values point to notes of the source that are not given here.
Assays:
[1] = system: Pythium aphanidermatum; test: Test A: bluegrass pythium blight, preventive spray on bluegrass seedlings; conditions: for Test A disease control rating: 200 ppm
[2] = system: Septoria nodorum; test: Test H: wheat glum blotch, preventive spray on wheat seedlings
Description: (the causal agent of wheat glum blotch) and incubated in a saturated atmosphere at 20° C. for 48 h, and then moved to a growth chamber at 22° C. for 5 days, after which disease ratings were made.

[3] = system: Puccinia recondita f. sp. tritici; test: Test K: wheat leaf rust, preventive spray on wheat seedlings; conditions: for Test K disease control rating: 200 ppm
[4] = system: Colletotrichum orbiculare; test: Test B: cucumber Colletotrichum anthracnose, preventive spray on cucumber seedlings
[5] = system: Phytophthora infestans; test: whole plant or invertebrate; assay type: in vivo
[6] = system: Botrytis cinerea; test: Test E: tomato botrytis, preventive spray on tomato seedlings
[7] = system: Rhizoctonia oryzae; test: Test G: turf brown patch, preventive spray on creeping bent grass seedlings
Description: (the causal agent of turf brown patch) and incubated in a saturated atmosphere at 27° C. for 24 h, and then moved to a growth chamber at 27° C. for 5 days, after which disease ratings were made.

[8] = system: Plasmopara viticola; test: Test D: grape downy mildew, spray after inoculation of grape seedlings; assay type: in vivo
From the text: Upon removal, disease ratings were made. […] A dash (-) indicates no test results.

[9] = system: Erysiphe graminis f. sp. tritici; test: Test L: wheat powdery mildew, preventive spray on wheat seedlings
[10] = system: fusarium graminearium; test: Test I: wheat head scab, preventive spray on wheat seedlings
Description: (the causal agent of wheat head scab) and incubated in a saturated atmosphere at 20° C. for 72 h, and then moved to a growth chamber at 22° C. for 5 days, after which disease ratings were made.

[11] = system: Septoria tritici; test: Test J: wheat leaf blotch, preventive spray on wheat seedlings; assay type: in vivo; conditions: 40 ppm (marked *); 100 = 100% disease control, 0 = no control
From the text: A dash (-) indicates no test results.

[12] = 100 = 100% disease control, 0 = no control relative to controls
[13] = 200 ppm, 100 = 100% disease control, 0 = no control relative to controls
[14] = 40 ppm (marked *), 100 = 100% disease control, 0 = no control

| Compound | Test A disease control rating [1, 12] [%] | Test H disease control rating [2, 13] [%] | Test K disease control rating [3, 12] [%] | Test B disease control rating [4, 13] [%] | Test F disease control rating [5, 13] [%] | Test E disease control rating [6, 13] [%] | Test G disease control rating [7, 13] [%] | Test D disease control rating [8, 13] [%] | Test L disease control rating [9, 13] [%] | Test I disease control rating [10, 13] [%] | Test J disease control rating [11] | Test D disease control rating [8, 14] | also measured |
| --- | --- | --- | --- | --- | --- | --- | --- | --- | --- | --- | --- | --- | --- |
| CC(C)=Nn1c(-c2c(F)cccc2F)c(Cl)nc(-n2cccn2)c1=O [Compound 392, 5-Chloro-6-(2,6-difluorophenyl)-1-[(1-methylethylidene)amino]-3-(1H-pyrazol-1-yl)-2(1H)-pyrazinone] |  |  |  |  |  |  |  |  |  |  |  |  | pest or weed control at 200 ppm ([1]; Pythium aphanidermatum, 120 h, read-out: Test A disease control rating): 0%; pest or weed control at 200 ppm ([2]; Parastagonospora nodorum, in Triticum aestivum, topical, 168 h, read-out: Test H disease control rating, 200 ppm, 100 = 100% disease control, 0 = no control relative to controls): 78%; pest or weed control at 200 ppm ([3]; Puccinia recondita, in Triticum aestivum, 192 h, read-out: Test K disease control rating): 99%; pest or weed control at 200 ppm ([4]; Colletotrichum orbiculare, in Cucumis sativus, 144 h, read-out: Test B disease control rating, 200 ppm, 100 = 100% disease control, 0 = no control relative to controls): 0%; pest or weed control at 200 ppm ([5]; Phytophthora infestans, in Solanum lycopersicum, topical, 144 h, read-out: Test F disease control rating): 0%; pest or weed control at 200 ppm ([6]; Botrytis cinerea, in Solanum lycopersicum, topical, 72 h, read-out: Test E disease control rating): 99%; pest or weed control at 200 ppm ([7]; Waitea circinata, in Agrostis stolonifera, topical, 144 h, read-out: Test G disease control rating, 200 ppm, 100 = 100% disease control, 0 = no control relative to controls): 69%; pest or weed control at 200 ppm ([8]; Plasmopara viticola, 168 h, 200 ppm, 100 = 100% disease control, 0 = no control relative to controls, read-out: Test D disease control rating): 0%; pest or weed control at 200 ppm ([9]; Blumeria graminis, in Triticum aestivum, 168 h, read-out: Test L disease control rating, 200 ppm, 100 = 100% disease control, 0 = no control relative to controls): 59%; pest or weed control at 200 ppm ([10]; Fusarium, in Triticum aestivum, topical, 192 h, read-out: Test I disease control rating, 200 ppm, 100 = 100% disease control, 0 = no control relative to controls): 0% |
| CC(C)Cn1c(-c2c(F)cccc2F)c(Cl)nc(N2CCC=N2)c1=O [compound 4] |  |  |  |  |  |  |  |  |  |  |  |  | Test A disease control rating [1]: 0%; Test H disease control rating ([2]; 200 ppm): 99%; Test K disease control rating [3]: 98%; Test B disease control rating ([4]; 200 ppm): 0%; Test F disease control rating ([5]; 200 ppm): 0%; Test E disease control rating ([6]; 200 ppm): 96%; Test G disease control rating ([7]; 200 ppm): 99%; Test D disease control rating ([8]; 200 ppm): 12%; Test L disease control rating ([9]; 200 ppm): 96%; Test I disease control rating ([10]; 200 ppm): 0% |
| CCC(C)c1c(Cl)nc(-n2ccc(C)n2)c(=O)n1CC(C)C (centres unmarked) [compound 390] | 0 | 0 | 100 | 0 | 0 | 98 | 99 | 8 | 100 | 0 |  |  |  |
| CC(C)Cn1c(-c2c(F)cccc2F)c(I)nc(-c2ccccn2)c1=O [compound 401] |  | 95 |  | 0 | 0 | 96 | 85 |  | 98 | 0 | 32* % | 0* % |  |
| O=c1c(-n2cccn2)nc(Cl)c(-c2c(F)cc(F)cc2F)n1-c1ccc(Cl)c(Cl)c1 [compound 402] |  |  |  |  |  |  |  |  |  |  | 99* % | 0* % | Test H disease control rating [2, 14]: 100* %; Test B disease control rating [4, 14]: 98* %; Test F disease control rating [5, 14]: 0* %; Test E disease control rating [6, 14]: 99* %; Test G disease control rating [7, 14]: 0* %; Test L disease control rating [9, 14]: 57* %; Test I disease control rating [10, 14]: 0* % |
| Cc1ccn(-c2nc(Cl)c(-c3c(F)cc(F)cc3F)n(-c3ccc(Cl)c(Cl)c3)c2=O)n1 [compound 403] |  |  |  |  |  |  | 0 |  |  |  | 98* % | 0* % | Test H disease control rating [2, 14]: 100* %; Test B disease control rating [4, 14]: 99* %; Test F disease control rating [5, 14]: 0* %; Test E disease control rating [6, 14]: 99* %; Test L disease control rating [9, 14]: 99* %; Test I disease control rating [10, 14]: 0* % |
| O=c1c(-n2cccn2)nc(Cl)c(-c2c(F)cc(F)cc2F)n1C1CCCCC1 [compound 418] | 0 | 100 | 99 | 99 | 0 | 99 | 99 | 47 | 100 | 0 |  |  |  |
| CCC(C)Cn1c(-c2ccc(OC)cc2F)c(Cl)nc(-n2cccn2)c1=O (centres unmarked) [compound 421] | 0 | 100 | 100 | 99 | 0 | 99 | 34 | 3 | 94 | 0 |  |  |  |
